Laboratory results as given in PMC11695783 (Frontiers in Pharmacology, 2024).
Converted amounts (≈) assume the structure as drawn. “And” between values parts separate entries of the source, which are not always exact repeats. Equal entries are not always repeated. Structures can show the parent of a compound that is named as a salt.

Legend:
Mycoplasma pneumoniae = experiment: In vivo pharmacodynamic study: Mycoplasma pneumoniae loads in BALF of infected mice; design: species or system BALB/c mice; settings: tiamulin 40 mg/kg PO (fumarate soluble powder); for MPcounts in BALF (AV): group AV; for MPcounts in BALF: individual mice
Method: (§1) Adult BALB/c mice (20–22 g) were divided into a control group, a positive group, and compound 16C groups at low (20 mg/kg), medium (40 mg/kg), and high-dose (80 mg/kg) levels and oral and intramuscular tiamulin treatment groups (40 mg/kg). We formulated the above dose range based on the dose at which tiamulin was approved for injection (10–20 mg/kg) and the dose previously reported (45 mg/kg) ([EMA, 1999]; [Xiao et al., 2016]). In summary, we selected similar doses for compound 16C in vivo study. 40 mg/kg was used as an intermediate value, one-half of it as a low dose, and two times of it as a high dose. To prepare the challenge solution, logarithmic phase culture suspensions were centrifuged at 1700 g for 10 min, and the pellets were suspended in sterile PBS to obtain 1 × 10^9 CFU/mL. Before the challenge, mice were anesthetized with tribromoethanol (250 mg/kg, IP). Mice in the control groups were intratracheally inoculated with sterile PBS, whereas mice in the other groups were intratracheally challenged with 50 μL (1 × 10^9 CFU/mL) M. pneumoniae suspension once a day for 3 days. Compound 16C and tiamulin (tiamulin-IM group) dissolved using the method mentioned in pharmacokinetic studies, and the tiamulin fumarate soluble powder was dissolved in ddH2O for oral administration. After the final challenge, antibiotics were administered at low, medium, and high-dose levels (see above) at 10 a.m. and 10 p.m. daily for 4 consecutive days. Normal saline containing 5% DMSO and 5% Tween-80 was administered as control and positive groups by thigh intramuscular injection. To compare the efficacy of compound 16C and tiamulin under the same route of administration, we used the original tiamulin for intramuscular administration in the same formulation. On the other hand, tiamulin fumarate soluble powder, approved for oral administration to treat animal mycoplasma diseases in China, was administered to mice by gavage. Based on a clinical study of lefamulin in community-acquired bacterial pneumonia (CABP), subjects were administered twice a day and the 96 ± 24 h of starting treatment was an essential point for early clinical response (ECR) ([Paukner et al., 2022]). We therefore stopped treatment at 96 h and sampled at 192 h to explore whether the disease worsened after cessation of treatment. Bronchoalveolar lavage fluid (BALF) and lungs were collected at 0, 96, 192 h (Samples of 0 h were collected before starting treatment, and mice were fed ad libitum without drug treatment during 96–192 h) after the first dose, BALF for cytokine and cytological analysis and lung for histopathological evaluation.
(§2) Bronchoalveolar lavage was performed according to a standardized method ([Van Hoecke et al., 2017]). BALF was obtained following infusion of 0.5 mL PBS via tracheal cannulation into the lung twice (total 1 mL), and 200 µL was used for mycoplasma counts. The remaining BALF was centrifuged at 300 g for 10 min to separate the debris. The supernatants were stored at −80°C, and the debris was resuspended in the same volume of PBS containing red blood cell lysis buffer. A hemocytometer was used to count total cell numbers in BALF, and cell smears (Diff-Quik staining) were prepared to calculate the percentages of neutrophils, macrophages, and lymphocytes. IFN-γ, TNF-α, and CXCL1 levels in BALF samples were assessed using commercial ELISA kits using guidelines recommended by the manufacturer (Elabscience, Wuhan, China). Parallel data for each experimental group at each time point were obtained from six different mice.

IFN-γ = IFN-γ in BALF of M. pneumoniae-infected mice (ELISA); type: in vivo, BALB/c mice; settings: tiamulin 40 mg/kg PO (fumarate soluble powder); for IFN-γ in BALF (AV): group AV; for IFN-γ in BALF: individual mice
Method: as §1, §2

TNF-α = TNF-α in BALF of M. pneumoniae-infected mice (ELISA); type: in vivo, BALB/c mice; settings: tiamulin 40 mg/kg PO (fumarate soluble powder), individual mice
Method: as §1, §2

CXCL1 = CXCL1 in BALF of M. pneumoniae-infected mice (ELISA); type: in vivo, BALB/c mice; settings: tiamulin 40 mg/kg PO (fumarate soluble powder), individual mice
Method: as §1, §2

[1] = test system: Mycoplasma pneumoniae-infected mice (lung tissue); experiment: Histopathological assessment of lung tissue (HPS, response and recovery rates) in M. pneumoniae-infected mice; type: in vivo, BALB/c mice; design: HPS value (mean) / HPS: scale not given here; settings: tiamulin 40 mg/kg PO (fumarate soluble powder); for HPS: individual mice
Method: as §1
Lung tissues were collected at 0, 96, and 192 h following drug administration. Lungs were collected from 6 mice in each group at 96 h and 13–15 mice in each group at 192 h. In addition, the lungs of 8 untreated infected mice were taken at 0 h as initial controls. Lung tissues were fixed in 4% paraformaldehyde, and whole-mount sections of paraffin-embedded lungs were stained with hematoxylin and eosin (H&E). The histopathologic score (HPS) was determined according to published protocols by a single pathologist who was unaware of the treatment status and groups of the animals ([Cimolai et al., 1992]). The HPS was based on individual grading of peribronchiolar/bronchial infiltrate, bronchiolar/bronchial luminal exudate, perivascular infiltrate, and parenchymal pneumoniae.

[2] = test system: Mycoplasma pneumoniae strain M129 (ATCC 29342); experiment: Susceptibility assay (broth microdilution MIC, MBC); type: cell-based
Method: (§3) Mycoplasma pneumoniae strain M129 (ATCC 29342) was obtained from American Type Culture Collection (Manassas, VA, United States) and cultured at 37°C in the presence of 5% CO2 in the modified SP-4 liquid medium (pH 7.4) containing 2.1% (w/v) CM1166 mycoplasma broth base medium (Oxoid, Hants, United Kingdom), 20% (v/v) fetal bovine serum (FBS, Bioexplorer, CO, United States), 0.4% yeast extract (Oxoid), 0.55% (w/v) CMRL 1066 w/L-glutamine culture media powder (MyBioSource, San Diego, CA, United States), 1% D-glucose (Macklin) and 0.004% phenol red (Macklin). […] The solid medium is based on the above formula with the addition of 1% agar, and the characteristic fried egg-like colonies were used for experiments following incubation for 7 d on plates.
The broth microdilution MIC procedure was performed according to standardized methods for microdilution susceptibility testing of mycoplasma species ([Waites et al., 2012]). […] The concentration of organisms should be determined to approximately 10^6 CFU/mL prior to inoculation into 96-well plates. Due to the action of phenol red, the acidic metabolites of microbial growth can turn the medium yellow. […] The MBC assays were performed based on MICs following endpoint reading and the liquid in the high-concentration wells was removed for bacterial counting.

[3] = test system: Mycoplasma pneumoniae strain M129 (ATCC 29342); experiment: Time-kill curves; type: cell-based; design: M. pneumoniae count in time-kill curve: unit not given here
Method: as §3
The tubes were incubated at 37°C in 5% CO2 for 72 h, and 200 µL of the culture was removed every 12 h for 10-fold serial dilutions. The diluted cultures were plated on plates for further culture and counted after 7 d. The experiment was repeated three times.

C=C[C@]1(C)C[C@@H](OC(=O)CSCCN(CC)CC)[C@]2(C)[C@H](C)CC[C@]3(CCC(=O)[C@H]32)[C@@H](C)[C@@H]1O [Tiamulin-PO, Tiamulin fumarate, reference compound]
MPcounts in BALF (AV) (Mycoplasma pneumoniae; 96 h): 4.578 Log10CFU/mL | MPcounts in BALF (Mycoplasma pneumoniae; 96 h): 4.372 Log10CFU/mL and 4.349 Log10CFU/mL and 5.68 Log10CFU/mL and 4.443 Log10CFU/mL and 4.274 Log10CFU/mL and 4.354 Log10CFU/mL | MPcounts in BALF (AV) (Mycoplasma pneumoniae; 192 h): 4.3846 Log10CFU/mL | MPcounts in BALF (Mycoplasma pneumoniae; 192 h): 4.0302 Log10CFU/mL and 4.805 Log10CFU/mL and 4.331 Log10CFU/mL and 4.53 Log10CFU/mL and 4.4765 Log10CFU/mL and 4.136 Log10CFU/mL | IFN-γ in BALF (AV) (IFN-γ; 96 h): 32.2599 pg/mL | IFN-γ in BALF (IFN-γ; 96 h): 34.8842 pg/mL and 17.3704 pg/mL and 63.2217 pg/mL and 29.659 pg/mL and 25.3118 pg/mL and 23.1122 pg/mL | IFN-γ in BALF (AV) (IFN-γ; 192 h): 34.0801 pg/mL | IFN-γ in BALF (IFN-γ; 192 h): 37.2747 pg/mL and 51.8224 pg/mL and 27.2214 pg/mL and 28.4425 pg/mL and 30.8711 pg/mL and 28.8485 pg/mL | TNF-α in BALF (TNF-α; 96 h): 13.0598 pg/mL and 17.5743 pg/mL and 24.463 pg/mL and 20.81 pg/mL and 21.310 pg/mL and 10.7269 pg/mL | TNF-α in BALF (TNF-α; 192 h): 8.7059 pg/mL and 12.3017 pg/mL and 9.398 pg/mL and 5.239 pg/mL and 5.021 pg/mL and 15.24 pg/mL | CXCL1 in BALF (CXCL1; 96 h): 47.9583 pg/mL and 40.7995 pg/mL and 44.8333 pg/mL and 37.1973 pg/mL and 31.7608 pg/mL and 43.0428 pg/mL | CXCL1 in BALF (CXCL1; 192 h): 52.4056 pg/mL and 49.740 pg/mL and 60.3659 pg/mL and 36.7459 pg/mL and 45.7272 pg/mL | HPS ([1]; 96 h): 2.5 and 4 and 1 and 3 | HPS ([1]; 192 h): 1.5 and 2 and 1 and 8 and 0 and 3 and 4 | Recovery ([1]; from HPS at 192 h): 6.67% | Response ([1]; from HPS at 192 h): 86.67%

CC[C@H]1OC(=O)[C@H](C)[C@@H](O[C@H]2C[C@@](C)(OC)[C@@H](O)[C@H](C)O2)[C@H](C)[C@@H](O[C@@H]2O[C@H](C)C[C@H](N(C)C)[C@H]2O)[C@](C)(O)C[C@@H](C)C(=O)[C@H](C)[C@@H](O)[C@]1(C)O [erythromycin]
MIC ([2]; M. pneumoniae strain M129, ≈96 h, read-out: MIC): 0.016 µg/mL (≈ 0.0218 µM) | MBC ([2]; M. pneumoniae strain M129, read-out: MBC): 0.032 µg/mL (≈ 0.0436 µM) | M. pneumoniae count in time-kill curve ([3]; 1×MIC, time 0): 7.138 | M. pneumoniae count in time-kill curve ([3]; 1×MIC, time 12): 6.145 | M. pneumoniae count in time-kill curve ([3]; 1×MIC, time 24): 6.32 | M. pneumoniae count in time-kill curve ([3]; 1×MIC, time 36): 5.109 | M. pneumoniae count in time-kill curve ([3]; 1×MIC, time 48): 4.8395 | M. pneumoniae count in time-kill curve ([3]; 1×MIC, time 60): 5.816 | M. pneumoniae count in time-kill curve ([3]; 1×MIC, time 72): 6.113 | decrease of bacterial load ([3]; 2 × MIC, 72 h exposure): 3.61 log10 CFU/mL | M. pneumoniae count in time-kill curve ([3]; 2×MIC, time 0): 7.138 | M. pneumoniae count in time-kill curve ([3]; 2×MIC, time 12): 6.411 | M. pneumoniae count in time-kill curve ([3]; 2×MIC, time 24): 6.275 | M. pneumoniae count in time-kill curve ([3]; 2×MIC, time 36): 4.753 | M. pneumoniae count in time-kill curve ([3]; 2×MIC, time 48): 4.288 | M. pneumoniae count in time-kill curve ([3]; 2×MIC, time 60): 4.145 | M. pneumoniae count in time-kill curve ([3]; 2×MIC, time 72): 3.53 | M. pneumoniae count in time-kill curve ([3]; 4×MIC, time 0): 7.138 | M. pneumoniae count in time-kill curve ([3]; 4×MIC, time 12): 6.078 | M. pneumoniae count in time-kill curve ([3]; 4×MIC, time 24): 6.148 | M. pneumoniae count in time-kill curve ([3]; 4×MIC, time 36): 4.203 | M. pneumoniae count in time-kill curve ([3]; 4×MIC, time 48): 3.916 | M. pneumoniae count in time-kill curve ([3]; 4×MIC, time 60): 3.913 | M. pneumoniae count in time-kill curve ([3]; 4×MIC, time 72): 3.415 | M. pneumoniae count in time-kill curve ([3]; 8×MIC, time 0): 7.138 | M. pneumoniae count in time-kill curve ([3]; 8×MIC, time 12): 6.379 | M. pneumoniae count in time-kill curve ([3]; 8×MIC, time 24): 6.145 | M. pneumoniae count in time-kill curve ([3]; 8×MIC, time 36): 4.163 | M. pneumoniae count in time-kill curve ([3]; 8×MIC, time 48): 3.977 | M. pneumoniae count in time-kill curve ([3]; 8×MIC, time 60): 3.326 | M. pneumoniae count in time-kill curve ([3]; 8×MIC, time 72): 3.283 | M. pneumoniae count in time-kill curve ([3]; 16×MIC, time 0): 7.138 | M. pneumoniae count in time-kill curve ([3]; 16×MIC, time 12): 6.732 | M. pneumoniae count in time-kill curve ([3]; 16×MIC, time 24): 6.1338 | M. pneumoniae count in time-kill curve ([3]; 16×MIC, time 36): 3.93 | M. pneumoniae count in time-kill curve ([3]; 16×MIC, time 48): 3.332 | M. pneumoniae count in time-kill curve ([3]; 16×MIC, time 60): 3.123 | M. pneumoniae count in time-kill curve ([3]; 16×MIC, time 72): 3.438 | M. pneumoniae count in time-kill curve ([3]; 32×MIC, time 0): 7.138 | M. pneumoniae count in time-kill curve ([3]; 32×MIC, time 12): 6.133 | M. pneumoniae count in time-kill curve ([3]; 32×MIC, time 24): 5.307 | M. pneumoniae count in time-kill curve ([3]; 32×MIC, time 36): 3.588 | M. pneumoniae count in time-kill curve ([3]; 32×MIC, time 48): 3.619 | M. pneumoniae count in time-kill curve ([3]; 32×MIC, time 60): 3.2228 | M. pneumoniae count in time-kill curve ([3]; 32×MIC, time 72): 3.181 | M. pneumoniae count in time-kill curve ([3]; 64×MIC, time 0): 7.138 | M. pneumoniae count in time-kill curve ([3]; 64×MIC, time 12): 6.741 | M. pneumoniae count in time-kill curve ([3]; 64×MIC, time 24): 5.886 | M. pneumoniae count in time-kill curve ([3]; 64×MIC, time 36): 3.638 | M. pneumoniae count in time-kill curve ([3]; 64×MIC, time 48): 3.377 | M. pneumoniae count in time-kill curve ([3]; 64×MIC, time 60): 2.841 | M. pneumoniae count in time-kill curve ([3]; 64×MIC, time 72): 2.68 | concentration at which bactericidal effect was achieved ([3]; static time-kill, 72 h): 2 × MIC
